Measurements reported in patent publication US20050197371A1, “Urea derivatives as PDGFR modulators” (Ambit Biosciences Corporation, priority 2003, published 2005).

Target: T1, PDGFRB(DKIN) (PDGFR-β) (Homo sapiens, UniProt P09619)
T1 construct: PDGFRB(DKIN)
Test: Phage-display competitive binding assay, PDGFRB(DKIN)
Conditions: T7 phage displaying human PDGFR-β, DKIN construct; read-out: Binding Assay: PDGFRB(DKIN)
Description: The term “ND” represents non-determined values.
Briefly, T7 phage displaying human PDGFR-β were incubated with an affinity matrix coated with known PDGFR-β inhibitor in the presence of various concentrations of the soluble competitor molecules.

Row | Kd | Compound
1 | < 100 nM | Cc1ccc(NC(=O)c2ccc(NC(=O)Nc3cc(C(C)(C)C)on3)cc2)cc1 [Compound N84]
2 | 100 to 1000 nM | CC(C)(C)c1cc(NC(=O)Nc2ccc(NC(=O)Cc3oc(-c4ccc(Cl)cc4)nc3-c3ccccc3)cc2)no1 [Compound N66]
3 | 100 to 1000 nM | CC(C)(C)c1cc(NC(=O)Nc2ccc(NC(=O)Cc3ccccc3)cc2)no1 [Compound N35]
4 | 1000 to 10000 nM | CC(C)(C)c1cc(NC(=O)Nc2ccc(NS(=O)(=O)c3ccccc3)cc2)no1 [Compound V1]
5 | 100 to 1000 nM | CC(C)(C)c1cc(NC(=O)Nc2ccc(C(=O)Nc3ccc(F)cc3F)cc2)no1 [Compound N153]
6 | 100 to 1000 nM | CC(C)(C)c1cc(NC(=O)Nc2ccc(OCCN3CCSCC3)cc2)no1 [Compound G53]
7 | 100 to 1000 nM | Cn1cc(C(=O)Nc2ccc(NC(=O)Nc3cc(C(C)(C)C)on3)cc2)c(C(F)(F)F)n1 [Compound N20]
8 | 100 to 1000 nM | CC(=O)c1ccc(N2CCC(C(=O)Nc3ccc(NC(=O)Nc4cc(C(C)(C)C)on4)cc3)CC2)cc1 [Compound N65]
9 | 100 to 1000 nM | CC(C)(C)c1cc(NC(=O)Nc2ccc(NC(=O)c3nocc3C(C)(C)C)cc2)no1 [Compound N82]
10 | < 100 nM | CCOC(=O)c1cccc(C(=O)Nc2ccc(NC(=O)Nc3cc(C(C)(C)C)on3)cc2)n1 [Compound N164]
11 | 1000 to 10000 nM | CC(C)(C)c1cc(NC(=O)Nc2ccc(NC(=O)Cc3csc4ccccc34)cc2)no1 [Compound N107]
12 | < 100 nM | CC(C)(C)c1cc(NC(=O)Nc2ccc(NC(=O)c3cc([N+](=O)[O-])ccn3)cc2)no1 [Compound N7]
13 | 100 to 1000 nM | CN(Cc1cccc([N+](=O)[O-])c1)C(=O)Nc1cc(C(C)(C)C)on1 [Compound J3]
14 | < 100 nM | CC(C)(C)c1cc(NC(=O)Nc2ccc(OCC3CCC3)cc2)no1 [Compound G39]
15 | < 100 nM | C=CCOc1ccc(NC(=O)Nc2cc(C(C)(C)C)no2)cc1 [Compound G32]
16 | 100 to 1000 nM | CC(C)(C)c1cc(NC(=O)Nc2ccc(NC(=O)c3csnn3)cc2)no1 [Compound N14]
17 | < 100 nM | CCOC(=O)CCc1c(C)[nH]c(C(=O)Nc2ccc(NC(=O)Nc3cc(C(C)(C)C)on3)cc2)c1C [Compound N83]
18 | 100 to 1000 nM | CC(C)(C)c1cc(NC(=O)Nc2ccc(C(=O)NCCO)cc2)no1 [Compound N87]
19 | < 100 nM | CC(C)(C)c1cc(NC(=O)Nc2ccc(NC(=O)c3ccc(Oc4ccnc(C(=O)O)c4)cc3)cc2)no1 [Compound N166]
20 | > 10000 nM | CC(C)(C)c1cc(NC(=O)Nc2ccc(NC(=O)Cc3ccc(OCc4ccccc4)cc3)cc2)no1 [Compound N98]
21 | 1000 to 10000 nM | C=C/C(=C\C=C\Cl)NC(=O)Nc1ccc(C(=O)OCCOC)cc1 [Compound Z54]
22 | 100 to 1000 nM | CC(C)(C)c1cc(NC(=O)Nc2ccc(NC(=O)c3coc(-c4ccc(Cl)cc4)n3)cc2)no1 [Compound N124]
23 | 100 to 1000 nM | CC(C)(C)c1cc(NC(=O)Nc2ccc(C(=O)/C=C/c3ccncc3)cc2)no1
24 | < 100 nM | Cc1cccnc1C(=O)Nc1ccc(NC(=O)Nc2cc(C(C)(C)C)on2)cc1 [Compound N41]
25 | 100 to 1000 nM | CC(C)(C)c1cc(NC(=O)Nc2ccc(Nc3ccnc(N)n3)cc2)no1 [Compound O7]
26 | < 100 nM | Cc1ccc2sc(C(=O)Nc3ccc(NC(=O)Nc4cc(C(C)(C)C)on4)cc3)cc2c1 [Compound N133]
27 | 100 to 1000 nM | Cc1nc(-c2ccc(Cl)cc2)sc1C(=O)Nc1ccc(NC(=O)Nc2cc(C(C)(C)C)on2)cc1 [Compound N184]

Row | Kd | Compound
28 | < 100 nM | CC(C)(C)c1cc(NC(=O)Nc2ccc(NC(=O)c3cccc[n+]3[O-])cc2)no1 [Compound N81]
29 | > 10000 nM | O=C(Nc1ccc(Br)cc1)Nc1cc(C(F)(F)F)cc(Cl)n1 [Compound Z72]
30 | 100 to 1000 nM | Cn1nc(C(C)(C)C)cc1C(=O)Nc1ccc(NC(=O)Nc2cc(C(C)(C)C)on2)cc1 [Compound N10]
31 | < 100 nM | CC(C)(C)c1cc(NC(=O)Nc2ccc(NC(=O)c3cccc(Cl)n3)cc2)no1 [Compound N4]
32 | > 10000 nM | COc1ccc(N(N)C(=O)Nc2cc(C(C)(C)C)on2)cc1 [Compound J14]
33 | 1000 to 10000 nM | CC(C)(C)c1cc(NC(=O)Nc2ccc(NC(=O)c3ccccc3O)cc2)no1 [Compound N69]
34 | < 100 nM | CC(C)(C)c1cc(NC(=O)Nc2ccc(OCc3ccc(F)cc3)cc2)no1 [Compound G35]
35 | < 100 nM | CC(C)(C)c1cc(NC(=O)Nc2ccc(NC(=O)c3cn4cc(Cl)ccc4n3)cc2)no1 [Compound N3]
36 | 100 to 1000 nM | CC(C)(C)c1cc(NC(=O)Nc2ccc(OCc3ccc(C(=O)c4ccccc4)cc3)cc2)no1 [Compound G9]
37 | 100 to 1000 nM | O=C(Nc1ccc(OCc2ccccc2)cc1)Nc1cc(C2CC2)nn1-c1ccccc1 [Compound H8]
38 | < 100 nM | CC(C)(C)c1cc(NC(=O)Nc2ccc(C(=O)Nc3nccnc3N)cc2)no1 [Compound N157]
39 | 100 to 1000 nM | CC(C)(C)c1cc(NC(=O)Nc2ccc(OCc3ccc4nonc4c3)cc2)no1 [Compound G55]
40 | 1000 to 10000 nM | O=C(Nc1ccc(Cl)cc1)Nc1cc(C2CC2)nn1-c1ccccc1 [Compound D10]
41 | < 100 nM | COC(=O)c1cccc(COc2ccc(NC(=O)Nc3cc(C(C)(C)C)on3)cc2)c1 [Compound G7]
42 | < 100 nM | CC(C)(C)c1cc(NC(=O)Nc2ccc(OCc3ccc(F)cc3Cl)cc2)no1 [Compound G18]
43 | 100 to 1000 nM | COc1cc(NC(=O)c2cn3nc(Cl)ccc3n2)ccc1NC(=O)Nc1cc(C(C)(C)C)on1 [Compound N171]
44 | < 100 nM | COc1cc2ncnc(Nc3ccc(NC(=O)Nc4cc(C(C)(C)C)on4)cc3)c2cc1OC [Compound O5]
45 | 100 to 1000 nM | CNC(=O)c1ccc(NC(=O)Nc2cc(C(C)(C)C)on2)cc1 [Compound N85]
46 | 100 to 1000 nM | CC(C)(C)c1cc(NC(=O)Nc2ccc(Oc3ccccc3)cc2)no1 [Compound A24]
47 | 100 to 1000 nM | Cn1nc(-c2ccccc2)c2cc(C(=O)Nc3ccc(NC(=O)Nc4cc(C(C)(C)C)[nH]n4)cc3)[nH]c21 [Compound N5]
48 | < 100 nM | CC(C)(C)c1cc(NC(=O)Nc2ccc(NC(=O)C3=NCC=N3)cc2)no1 [Compound N13]
49 | < 100 nM | CC(C)(C)c1cc(NC(=O)Nc2ccc(NC(=O)c3ccc4sccc4c3)cc2)no1 [Compound N122]
50 | < 100 nM | CC(C)(C)c1cc(NC(=O)Nc2ccc(NC(=O)c3cc4ccccc4[nH]3)cc2)no1 [Compound N161]
51 | 100 to 1000 nM | O=C(Nc1ccccc1)Nc1ccc(-n2cnc(Cl)c2Cl)cc1 [Compound Z65]
52 | < 100 nM | CC(C)(C)c1cc(NC(=O)Nc2ccc(CCc3ccc(N)cc3)cc2)no1 [Compound A3]
53 | 100 to 1000 nM | COc1ccc(N2CCCN(c3cc(C(C)(C)C)no3)C2=O)cc1 [Compound E5]
54 | 100 to 1000 nM | Cc1ccc(-n2nc(C(C)(C)C)cc2NC(=O)Nc2ccc(OCCN3CCOC(CO)C3)c3ccccc23)cc1 (stereo not shown) [Compound G38]

Row | Kd | Compound
55 | 100 to 1000 nM | CC(C)c1ccc(NC(=O)Nc2cc(C(C)(C)C)no2)cc1 [Compound A11]
56 | 1000 to 10000 nM | CC(C)(C)c1cc(NC(=O)Nc2ccc3cc4ccccc4cc3c2)no1 [Compound A18]
57 | 100 to 1000 nM | CC(C)c1cc(NC(=O)Nc2ccc(NC(=O)C3CCN(c4ncc(C(F)(F)F)cc4Cl)CC3)cc2)no1 [Compound N59]
58 | 100 to 1000 nM | CC(C)(C)c1ccc(NC(=O)Nc2cc(C(C)(C)C)no2)cc1 [Compound A16]
59 | 100 to 1000 nM | Cc1cc(NC(=O)[C@](C)(O)CSc2ccc(F)cc2)ccc1NC(=O)Nc1cc(C(C)(C)C)on1 [Compound N170]
60 | 1000 to 10000 nM | CC(C)(C)c1cc(NC(=O)Nc2ccc(NC(=O)C3=Cc4cc(F)cc(S(C)(=O)=O)c4C3)cc2)no1 [Compound N62]
61 | < 100 nM | CC(C)(C)c1cc(NC(=O)Nc2ccc(NC(=O)c3cccc4cccnc34)cc2)no1 [Compound N115]
62 | < 100 nM | Cc1nc(-c2ccc(C(=O)Nc3ccc(NC(=O)Nc4cc(C(C)(C)C)on4)cc3)s2)cs1 [Compound N173]
63 | 100 to 1000 nM | CC(C)(C)c1cc(NC(=O)Nc2ccc(NC(=O)c3ccc(Cl)nc3)cc2)no1 [Compound N125]
64 | 1000 to 10000 nM | O=C(Nc1ccc(Cl)cc1)Nc1ccno1 [Compound Z15]
65 | < 100 nM | C=N/C(=N\C)Oc1cccc(C(=O)Nc2ccc(NC(=O)Nc3cc(C(C)(C)C)on3)cc2)c1 [Compound N74]
66 | 1000 to 10000 nM | CC(C)(C)c1cc(NC(=O)Nc2ccc(NC(=O)c3c(F)cccc3C(F)(F)F)cc2)no1 [Compound N95]
67 | < 100 nM | Cc1noc(-c2ccc(NC(=O)Nc3cc(C(C)(C)C)on3)cc2)n1 [Compound P9]
68 | 1000 to 10000 nM | CC(C)(C)c1cc(NC(=O)Nc2ccc(Br)cc2C(F)(F)F)on1 [Compound A26]
69 | 1000 to 10000 nM | CC(C)(C)c1cc(NC(=O)Nc2ccc(OCCN3CCC(O)CC3)cc2)no1 [Compound G48]
70 | 1000 to 10000 nM | CC(C)(C)c1cc(NC(=O)Nc2ccc(NC(=O)c3cc4cccnc4nc3C(F)(F)F)cc2)no1 [Compound N61]
71 | < 100 nM | CC(C)(C)c1cc(NC(=O)Nc2ccc(OC/C=C/c3ccccc3Cl)cc2)no1 [Compound G26]
72 | < 100 nM | CC(C)(C)c1cc(NC(=O)Nc2ccc(OCc3ccccc3F)cc2)no1 [Compound G12, 1-(4-(2-fluorobenzyloxy)phenyl)-3-(5-tert-butylisoxazol-3-yl)urea]
73 | 100 to 1000 nM | Cc1nc(C(=O)Nc2ccc(NC(=O)Nc3cc(C(C)(C)C)on3)cc2)c(C(F)(F)F)o1 [Compound N55]
74 | 100 to 1000 nM | CC(C)(C)c1cc(NC(=O)Nc2ccc([N+](=O)[O-])cc2)no1 [Compound A21]
75 | < 100 nM | CN(C)c1ccc(C(=O)Nc2ccc(NC(=O)Nc3cc(C(C)(C)C)on3)cc2)cn1 [Compound N159]
76 | > 10000 nM | CC(C)(C)c1cc(NC(=S)Nc2ccc(N3CCOCC3)cc2)no1 [Compound F1, 1-(5-tert-butylisoxazol-3-yl)-3-(4-morpholinophenyl)thiourea]
77 | 100 to 1000 nM | CC1CN(CCOc2ccc(NC(=O)Nc3cc(C(C)(C)C)on3)cc2)CC(C)O1 (stereo not shown) [Compound G42]
78 | 100 to 1000 nM | CC(C)(C)c1cc(NC(=O)Nc2ccc(OCCN3CCOCC3)c3ccccc23)no1 [Compound K1]
79 | < 100 nM | CC(=O)c1c[nH]c(C(=O)Nc2ccc(NC(=O)Nc3cc(C(C)(C)C)on3)cc2)c1 [Compound N43]
